Assay results as given in US20240067693A1, “POLYPEPTIDES AND USES THEREOF” (MEDIMMUNE LIMITED, priority 2020, published 2024).
Numbered stars: 1 amine (or outer) side, 2 acyl side, 3 side chain; on linkers, the order of the positions; unused ones are H or OH. Bridge positions count the residues as written; N and C are the ends. Square brackets hold non-standard residues; d marks the D form. Side chains are listed from the residue outwards. Peptide text beside a SMILES is read from it. * marks the point of attachment. C18 diacid = O=C(O)CCCCCCCCCCCCCCCCC(=O)*; γGlu = O=C(O)[C@H](CCC(=O)[*:2])N[*:1]; Aib = CC(C)(N)C(=O)O

Tests used:
[1] = target: T1, human calcitonin receptor (hCTR) (Homo sapiens, UniProt P30988); test: cAMP production in 1321N1 cells with stable recombinant expression of human calcitonin receptor (hCTR); assay type: cell-based; conditions: cAMP, 1321N1 cells, assay buffer with 0.1% BSA; read-out: EC50 (pM) hCTR
T1 construct: expressed in transfected cells
T1 sequence (P30988 25-474): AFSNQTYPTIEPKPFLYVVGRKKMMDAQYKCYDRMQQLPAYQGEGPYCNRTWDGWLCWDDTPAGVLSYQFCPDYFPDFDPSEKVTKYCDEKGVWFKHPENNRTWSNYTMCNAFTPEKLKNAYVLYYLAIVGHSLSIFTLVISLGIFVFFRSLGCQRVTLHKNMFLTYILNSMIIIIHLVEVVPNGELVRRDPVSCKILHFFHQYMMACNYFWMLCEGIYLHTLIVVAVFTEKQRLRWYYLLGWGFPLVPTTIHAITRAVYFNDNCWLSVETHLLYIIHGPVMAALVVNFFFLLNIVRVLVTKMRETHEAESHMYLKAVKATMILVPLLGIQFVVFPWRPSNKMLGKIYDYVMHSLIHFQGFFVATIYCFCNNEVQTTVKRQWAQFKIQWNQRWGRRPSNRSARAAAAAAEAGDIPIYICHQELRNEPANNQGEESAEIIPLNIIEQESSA
Summary of the method: (§1)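 Receptor-expressing cells (human receptors in 1321N1, rat receptors in HEK) incubated 30 min at room temperature with peptide in HBSS/HEPES pH 7.4, 0.1% BSA, 0.5 mM IBMX. cAMP read by HTRF; EC50 from 4-parameter fit as % of maximal amylin or calcitonin response.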

[2] = target: T2, rat calcitonin receptor (rat CTR) (Rattus norvegicus, UniProt P32214); test: cAMP production in HEK cells with stable recombinant expression of rat calcitonin receptor (rat CTR); assay type: cell-based; conditions: assay buffer with 0.1% BSA
T2 construct: expressed in transfected cells
T2 sequence (P32214 25-516): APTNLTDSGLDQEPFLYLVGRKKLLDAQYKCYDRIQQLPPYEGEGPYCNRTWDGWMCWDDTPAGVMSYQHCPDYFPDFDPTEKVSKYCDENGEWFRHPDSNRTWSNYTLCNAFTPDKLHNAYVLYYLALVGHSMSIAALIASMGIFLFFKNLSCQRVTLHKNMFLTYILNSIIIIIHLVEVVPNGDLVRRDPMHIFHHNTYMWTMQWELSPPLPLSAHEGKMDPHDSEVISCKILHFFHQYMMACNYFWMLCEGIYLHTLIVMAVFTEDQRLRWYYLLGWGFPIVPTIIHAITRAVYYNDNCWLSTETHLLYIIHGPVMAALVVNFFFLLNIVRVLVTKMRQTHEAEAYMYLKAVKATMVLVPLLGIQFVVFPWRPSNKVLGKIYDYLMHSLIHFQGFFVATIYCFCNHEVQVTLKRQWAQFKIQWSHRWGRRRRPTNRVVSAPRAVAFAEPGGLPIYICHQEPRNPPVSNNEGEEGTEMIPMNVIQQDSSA
Summary of the method: as §1

[3] = Thioflavin T fibrillation assay; assay type: physicochemical; conditions: ThT fibrillation assay; peptide 1 mg/mL in 25 mM sodium acetate buffer pH 4.0; 6 days at 37 °C with shaking; >144 h = no increase
Summary of the method: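 Peptides at 1 mg/mL in 25 mM sodium acetate pH 4.0 with ThT (from 0.25 mM stock), incubated 6 days at 37 °C with intermittent orbital shaking at 500–750 rpm. Fluorescence (ex 444/em 480 nm) read every 30 min; value is average time to a rise in baseline-corrected signal.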

[4] = Pharmacokinetic determination via IV and SC administration in Sprague Dawley rats; conditions: male, rat, plasma, 20 nmol/kg
Procedure: PK studies were performed to determine the half-life (T1/2) of test peptides. T1/2 describes the time taken for the maximum plasma concentration (Cmax) of a test substance to halve its steady-state concentration when in circulation.
Male SD rats were purchased from Si Bei Fu Laboratory Animal Technology Co. Ltd (China). The animals were 6-8 weeks old with body weights of 200-300 g on the dosing date. The animals were housed in a 12-hour light/12-hour dark cycle environment and were fasted overnight before dosing. The body weight of the animals were recorded before dosing, 24 h and 48 h post dosing . Animals had free access to food and drinks, and the food consumption was quantified every day.
Test articles were administered at 20 nmol/kg. Blood samples were collected from each animal via Jugular vein.
The blood samples were transferred into eppendorf low binding tube containing K2 EDTA. Above 0.150 mL blood were collected at each time point. Blood samples were centrifuged at 4,000 g for 5 minutes at 4° C. to obtain plasma. The plasma samples were stored frozen at −75±15° C. until analysis.
Concentrations of the test articles in the plasma samples were analyzed using a LC-MS/MS method. Data acquisition was performed by LabSolution version 5.89 software (Shimadzu, Kyoto, Japan). Data statistics were performed using Excel 97-2003 software. The pharmacokinetic parameters of test articles were calculated using a non-compartmental approach with Phoenix™ VVinNonlin® 6.1.
The following pharmacokinetic parameters were calculated, whenever possible from the plasma concentration versus time data: • IV administration: T1/2, C0, AUClast, AUCinf, MRTinf, Cl, Vss, Number of Points for Regression. • SC administration: Tmax, Cmax, AUClast, AUCinf, MRTinf, F, Number of Points for Regression.

EC50 [1]: 5750 pM | EC50 [2]: 2870 pM | Time taken to detect increase in fluorescence intensity [3]: >144 h | half-life ([4]; iv): 10.3 h | half-life ([4]; sc): 9 h
SMILES: CC[C@H](C)[C@H](NC(=O)[C@@H]1CCCN1C(=O)CNC(=O)[C@H](Cc1ccccc1)NC(=O)[C@H](CC(N)=O)NC(=O)[C@H](CC(N)=O)NC(=O)[C@H](CO)NC(=O)[C@H](CO)NC(=O)[C@H](Cc1c[nH]cn1)NC(=O)C(C)(C)NC(=O)[C@H](CC(C)C)NC(=O)[C@H](Cc1ccccc1)NC(=O)[C@H](CC(N)=O)NC(=O)[C@H](C)NC(=O)[C@H](CC(C)C)NC(=O)[C@H](CCCNC(=N)N)NC(=O)[C@H](CCC(N)=O)NC(=O)[C@@H](NC(=O)[C@H](C)NC(=O)[C@@H]1CSSC[C@H](NC(=O)[C@H](CCCCN)NC(=O)[C@@H](N)CCCCNC(=O)CC[C@H](NC(=O)CCCCCCCCCCCCCCCCC(=O)O)C(=O)O)C(=O)N[C@@H](CC(N)=O)C(=O)N[C@@H]([C@@H](C)O)C(=O)N[C@@H](C)C(=O)N[C@@H]([C@@H](C)O)C(=O)N1)[C@@H](C)O)C(=O)N[C@@H](CC(C)C)C(=O)N1CCC[C@H]1C(=O)N1CCC[C@H]1C(=O)N[C@H](C(=O)N[C@@H](CC(N)=O)C(=O)N[C@H](C(=O)NCC(=O)N[C@@H](CO)C(=O)N[C@@H](CC(N)=O)C(=O)N[C@H](C(=O)N[C@@H](Cc1ccc(O)cc1)C(N)=O)[C@@H](C)O)C(C)C)[C@@H](C)O [Peptide 129] (H-K([γGlu-C18 diacid])KCNTATCATQRLANFL[Aib]HSSNNFGPILPPTNVGSNTY-NH2; disulfide 3-8; N-terminus assumed)
